Laboratory results: patent US9120861B2, “Functional enhancement of antimicrobials” (Mississippi State University, priority 2008, dated 2015)
Entries after “also recorded” stand apart in the source; their conditions may differ.

Experiments:
[1] = thin layer chromatography (TLC) lipid II binding assay; details: iodine stain; FIG. 8 and FIG. 9
Description: In FIG. 8 and FIG. 9, a thin layer chromatography (TLC) lipid II binding assay for native and modified nisin A and gallidermin is shown, respectively. The method of the present invention enables direct visualization for the loss of lipid II binding. […] Nisin is not as stable as gallidermin at higher temperatures.

M. luteus = assay: bioassay plate overlaid with M. luteus (bacterial clearing); assay type: cell-based; details: 5 μL spotted onto a plate overlaid with M. luteus; FIG. 6
Method: We performed a 2-mercaptoethanol addition to mutacin 1140 at pH 7.3 in Tris buffer at room temperature for 2 hours. FIG. 5 is a RP-HPLC chromatogram of the native mutacin 1140, designated by the black line with triangles, overlaid on the chromatogram of the 2-mercaptoethanol modified mutacin 1140 (B-Me mutacin), which is designated by the grey line with circles. The modification changes the retention time of the native molecule to the left, a slightly more hydrophilic solvent (more water relative to acetonitrile). The large peak in the flow through was determined, by smell, to be 2-mercaptoethanol. The two small sharp peaks following the flow peak, which both have an absorbance in the 280 nm range, appears to be contaminants in the 2-mercaptoethanol solution. They also appeared in Nisin A modified by the same 2-mercaptoethanol labeling procedure. Nisin has no aromatic residues to account for this absorbance. […] In the future, these 2-mercatoethanol peaks will be removed by washing the sample with ice cold ether, which will extract the thiol compound leaving our peptide in solution. We spotted 5 μL of the native mutacin and the B-Me mutacin onto a plate overlaid with M. luteus. […] We also performed the same reaction with ethanethiol following the same procedure outline above. […]

Substance: ethanethiol labeled nisin: nisin following addition of the organosulfur compound ethanethiol
- lipid II binding (retention of lipid II at the origin of the TLC plate) [1]: maintains lipid II binding activity; also recorded: diminished capacity to retain lipid II at the origin

Substance: gallidermin
- lipid II binding (retention of lipid II at the origin of the TLC plate) [1]: retain lipid II at the origin

Substance: mutacin 1140
- bactericidal activity (bacterial clearing, inhibition of bacterial growth) (M. luteus): bacterial clearing

Substance: nisin A
- lipid II binding (retention of lipid II at the origin of the TLC plate) [1]: retain lipid II at the origin
